Data published in the NIST ThermoML archive (doi:10.1016/j.jct.2017.06.001).
± gives the expanded uncertainty stated by the source.

Test: xn = mol fraction of the nth substance listed
Details: 308.15 K, 100 kPa, Liquid; for speed of sound: Frequency=5 MHz, Pulse-echo method; for mass density: Vibrating tube method

OCCCCCO [1,5-pentanediol] + O
Details | mass density [kg/m3] | speed of sound [m/s]
x1 = 0.005 | 993.57 ± 0.52 | –
x1 = 0.0101 | 993.45 ± 1 | –
x1 = 0.0196 | 993.6 ± 1 | –
x1 = 0.0251 | 993.93 ± 1 | –
x1 = 0.0304 | 994.32 ± 1 | –
x1 = 0.05 | 995.28 ± 1 | –
x1 = 0.0769 | 995.98 ± 1 | –
x1 = 0.0798 | – | 1647 ± 1.2
x1 = 0.0835 | – | 1649.2 ± 1.2
x1 = 0.0879 | – | 1651.5 ± 1.2
x1 = 0.0918 | – | 1653.4 ± 1.2
x1 = 0.0964 | – | 1655.5 ± 1.2
x1 = 0.1002 | 996.54 ± 1.1 | 1657 ± 1.2
x1 = 0.106 | – | 1659 ± 1.2
x1 = 0.1116 | – | 1660.7 ± 1.2
x1 = 0.1172 | – | 1662.1 ± 1.2
x1 = 0.1233 | – | 1663.4 ± 1.2
x1 = 0.131 | – | 1664.8 ± 1.2
x1 = 0.1377 | – | 1665.7 ± 1.2
x1 = 0.1435 | – | 1666.3 ± 1.2
x1 = 0.1438 | 996.71 ± 1.1 | –
x1 = 0.1514 | – | 1666.9 ± 1.3
x1 = 0.161 | – | 1667.4 ± 1.3
x1 = 0.1675 | – | 1667.5 ± 1.3
x1 = 0.1737 | – | 1667.6 ± 1.3
x1 = 0.1787 | – | 1667.6 ± 1.3
x1 = 0.1838 | – | 1667.5 ± 1.3
x1 = 0.1845 | 996.26 ± 1.1 | –
x1 = 0.1893 | – | 1667.4 ± 1.3
x1 = 0.1953 | – | 1667.2 ± 1.3
x1 = 0.2011 | – | 1667 ± 1.3
x1 = 0.2239 | – | 1665.8 ± 1.3
x1 = 0.2306 | – | 1665.4 ± 1.3
x1 = 0.2378 | – | 1664.9 ± 1.3
x1 = 0.2491 | – | 1664 ± 1.3
x1 = 0.2581 | – | 1663.3 ± 1.3
x1 = 0.2683 | – | 1662.5 ± 1.4
x1 = 0.2832 | – | 1661.2 ± 1.4
x1 = 0.3005 | – | 1659.5 ± 1.4
x1 = 0.3223 | – | 1657.4 ± 1.4
x1 = 0.3402 | – | 1655.5 ± 1.4
x1 = 0.3515 | – | 1654.3 ± 1.4
x1 = 0.3735 | – | 1651.8 ± 1.5
x1 = 0.3924 | – | 1649.6 ± 1.5
x1 = 0.4062 | – | 1647.9 ± 1.5
x1 = 0.4304 | – | 1644.9 ± 1.5
x1 = 0.4462 | – | 1642.8 ± 1.5
x1 = 0.4661 | – | 1640.2 ± 1.6
x1 = 0.4803 | – | 1638.3 ± 1.6
x1 = 0.4957 | – | 1636.1 ± 1.6
x1 = 0.5119 | – | 1633.9 ± 1.6
x1 = 0.5238 | – | 1632.2 ± 1.6
x1 = 0.5406 | – | 1629.8 ± 1.6
x1 = 0.5482 | – | 1628.7 ± 1.7
x1 = 0.5622 | – | 1626.7 ± 1.7
x1 = 0.5848 | – | 1623.5 ± 1.7
x1 = 0.6035 | – | 1620.8 ± 1.7
x1 = 0.6216 | – | 1618.2 ± 1.8
x1 = 0.6446 | – | 1615 ± 1.8
x1 = 0.6646 | – | 1612.2 ± 1.8
x1 = 0.6864 | – | 1609.3 ± 1.8
x1 = 0.7086 | – | 1606.4 ± 1.9
x1 = 0.7293 | – | 1603.7 ± 1.9
x1 = 0.7497 | – | 1601.1 ± 1.9
x1 = 0.7689 | – | 1598.8 ± 2
x1 = 0.7904 | – | 1596.2 ± 2
x1 = 0.8099 | – | 1593.9 ± 2
x1 = 0.8308 | – | 1591.5 ± 2
x1 = 0.8561 | – | 1588.6 ± 2.1
x1 = 0.8812 | – | 1585.8 ± 2.1
x1 = 0.9098 | – | 1582.5 ± 2.2
x1 = 0.9326 | – | 1579.9 ± 2.2
x1 = 0.9519 | – | 1577.5 ± 2.2
x1 = 0.9707 | – | 1575.2 ± 2.3
x1 = 0.9812 | – | 1573.8 ± 2.3
x1 = 0.9864 | – | 1573.2 ± 2.3
x1 = 0.9944 | – | 1572.1 ± 2.3
x1 = 1 | – | 1571.3 ± 2.3
